Among the data in PubChem BioAssay AID743023 (Sanford-Burnham Center for Chemical Genomics, 2013) are IC50 values, retold here.

For the assay, the system named is C. elegans VP596 hsp-16.2 GFP/RFP heat-shock reporter fluorescence. Description: heat-shock hsp-16.2 GFP reporter inhibition, SAR follow-up, counter-screen for SKN-1 inhibitor project, whole organism, C. elegans VP596, GFP/RFP ratio, round 3 (AID 743023). Background: A counterscreen serves to expose hits that act by an unwanted route or on another target.

Activity calls are given as the source filed them.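 How the source made its calls: active means mean IC50 of 15000 nM or lower against heat shock reporter, a sign of off-target artifact; inactive means the rest.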 Some results are limits rather than exact numbers.

The term IC50 denotes the midpoint of a concentration-inhibition curve. Take `c1ccc(-c2csc(-c3ccncc3)n2)cc1`: the IC50 was > 64 µM (inactive). Then `COC(=O)c1ccc(-c2csc(-c3ccncc3)n2)cc1`, with > 64 µM (inactive); and `Cc1ccc(-c2nc(-c3ccncc3)sc2C)cc1`, with > 64 µM (inactive). For `Fc1ccc(-c2csc(-c3ccccn3)n2)cc1`, the IC50 was > 64 µM (inactive). Then `COc1ccc(-c2csc(-c3ccncc3)n2)cc1`, with > 64 µM (inactive); and `Fc1ccc(-c2csc(C3CCNCC3)n2)cc1`, with > 64 µM (inactive). Then `Clc1cccc(-c2csc(-c3ccncc3)n2)c1`, with > 64 µM (inactive); and `c1cc(-c2nc(-c3nccs3)cs2)ccn1`, with > 64 µM (inactive); and `Fc1ccc(-c2csc(-c3ccncc3)n2)cc1`, with > 64 µM (inactive). For `Cc1ccccc1-c1csc(-c2ccncc2)n1`, the IC50 is > 64 µM (inactive). For the molecule `c1ccc(-c2csc(C3CCNCC3)n2)cc1`, the IC50 was > 64 µM (inactive). Then `Clc1ccccc1-c1csc(-c2ccncc2)n1`, with > 64 µM (inactive). Then `Cc1ccc(-c2csc(-c3ccccn3)n2)cc1`, with > 64 µM (inactive); and `Cc1cccc(-c2csc(-c3ccncc3)n2)c1`, with > 64 µM (inactive); and `c1ccc(-c2nc(-c3cccnc3)cs2)cc1`, with > 64 µM (inactive). Then `Cc1sc(-c2ccncc2)nc1-c1ccc(Cl)cc1`, with > 64 µM (inactive); and `c1cc(-c2nc(C3CC3)cs2)ccn1`, with > 64 µM (inactive); and `Clc1ccc(-c2csc(-c3ccncc3)n2)c(Cl)c1`, with > 64 µM (inactive).

For `Clc1ccc(-c2csc(-c3ccccn3)n2)cc1`, the IC50 is > 64 µM (inactive). The figure for `Cc1ccc(-c2csc(C3CCNCC3)n2)cc1` is > 64 µM (inactive); for `Clc1ccc(-c2csc(-c3ccncc3)n2)cc1Cl` it is > 64 µM (inactive); for `c1ccc(-c2csc(-c3ccccn3)n2)cc1` it is > 64 µM (inactive). As for `Fc1ccc(-c2csc(-c3cccnc3)n2)cc1`, the IC50 was > 64 µM (inactive). Then `COc1ccc(-c2csc(-c3cccnc3)n2)cc1`, with > 64 µM (inactive); and `Clc1ccc(-c2csc(C3CCNCC3)n2)cc1`, with > 64 µM (inactive). Then `COc1ccc(-c2csc(-c3ccccc3)n2)cc1`, with > 64 µM (inactive). As to `Clc1ccc(-c2csc(-c3ccncc3)n2)cc1`, the IC50 is > 64 µM (inactive). As to `COc1ccc(-c2csc(C3CCNCC3)n2)cc1`, the IC50 is > 64 µM (inactive). Regarding `COc1ccccc1-c1csc(-c2ccncc2)n1`, the IC50 is > 64 µM (inactive). For `Clc1ccc(-c2csc(-c3cccnc3)n2)cc1`, the IC50 is > 64 µM (inactive).

On to `CCCc1cc(-c2nc(-c3ccc(NS(C)(=O)=O)cc3)cs2)ccn1`, for which the IC50 is > 64 µM (inactive).

For `CCCc1cc(-c2nc(-c3ccc(C)cc3)cs2)ccn1`, the IC50 was > 64 µM (inactive). For `FC(F)(F)c1ccc(-c2csc(-c3ccncc3)n2)cc1`, the IC50 is > 64 µM (inactive).

For `Cc1csc(-c2ccncc2)n1`, the IC50 is > 64 µM (inactive).

In the case of `Cc1ccc(-c2csc(-c3ccccc3)n2)cc1`, the IC50 is > 64 µM (inactive). With `Cc1sc(-c2ccncc2)nc1-c1ccccc1`, the IC50 was > 64 µM (inactive).

Consider `Cc1ccc(-c2csc(-c3cccnc3)n2)cc1`, for which the IC50 was > 64 µM (inactive).

`COc1cccc(-c2csc(-c3ccncc3)n2)c1`: the IC50 is > 64 µM (inactive). Then `Cc1sc(-c2ccncc2)nc1-c1ccc(F)cc1`, with > 64 µM (inactive); and `c1ccc(-c2csc(-c3cccnc3)n2)cc1`, with > 64 µM (inactive); and `Fc1ccc(-c2csc(-c3ccccc3)n2)cc1`, with > 64 µM (inactive). Then `COc1ccc(-c2csc(-c3ccccn3)n2)cc1`, with > 64 µM (inactive); and `Clc1ccc(-c2csc(-c3ccccc3)n2)cc1`, with > 64 µM (inactive); and `COc1ccc(-c2nc(-c3ccncc3)sc2C)cc1`, with > 64 µM (inactive). With `Cc1sc(C2CCNCC2)nc1-c1ccccc1`, the IC50 is > 64 µM (inactive). Take `N#Cc1ccc(-c2csc(-c3ccncc3)n2)cc1`: the IC50 is > 64 µM (inactive). Then `Cc1ccc(-c2csc(-c3ccncc3)n2)cc1`, with > 64 µM (inactive). Turning to `CC(C)(C)c1csc(-c2ccncc2)n1`, the IC50 is > 64 µM (inactive).
